Test results as given in ChEMBL document CHEMBL2016437, “Synthesis and biological evaluation of novel small non-peptidic HIV-1 PIs: the benzothiophene ring as an effective moiety” (Bioorg Med Chem Lett, 2012).
Active and inactive are the calls of the source. The calls are words filed in the database; no cut-off is given here.

What was measured:
Protease = Protease (Human immunodeficiency virus 1, UniProt Q9YQ12); experiment: Inhibition of wild type HIV-1 protease assessed as hydrolysis of fluorogenic substrate Abz-Thr-Ile-Nle-Phe(NO2)-Gln-Arg after 10 mins by fluorescence assay
Protease, sequence (Q9YQ12 whole entry): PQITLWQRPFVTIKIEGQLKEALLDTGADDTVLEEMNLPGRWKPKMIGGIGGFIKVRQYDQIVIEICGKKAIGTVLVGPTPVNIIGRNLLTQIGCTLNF

[1] = Cytotoxicity against human U937 cells after 1 to 4 hrs by MTS assay; assay type: cell-based, U-937
[2] = tested on: Human immunodeficiency virus type 1 protease (Human immunodeficiency virus 1), Q72874 [V82A]; experiment: Inhibition of HIV-1 protease V82A mutant assessed as hydrolysis of fluorogenic substrate Abz-Thr-Ile-Nle-Phe(NO2)-Gln-Arg after 10 mins by fluorescence assay
[3] = tested on: Human immunodeficiency virus type 1 protease (Human immunodeficiency virus 1), Q72874 [V32I]; experiment: Inhibition of HIV-1 protease V32I mutant assessed as hydrolysis of fluorogenic substrate Abz-Thr-Ile-Nle-Phe(NO2)-Gln-Arg after 10 mins by fluorescence assay

| IC50 (Protease) [µM] | Compound | CC50 [1] [µM] | inhibition [2] | inhibition [3] |
| --- | --- | --- | --- | --- |
| > 1000 | COc1ccc(S(=O)(=O)N(CC(C)C)C[C@@H](O)COc2ccc3c(ccn3Cc3ccccc3)c2)cc1OC | – | – | – |
| > 1000 | COc1ccc(S(=O)(=O)N(CC(C)C)C[C@@H](O)COc2ccc3c(ccn3C)c2)cc1OC | – | – | – |

The remaining lines, values behind:

| Compound | IC50 (Protease) [µM] | CC50 [1] [µM] | inhibition [2] | inhibition [3] |
| --- | --- | --- | --- | --- |
| Cc1c(O)cccc1C(=O)N[C@@H](CSc1ccccc1)[C@H](O)CN1C[C@H]2CCCC[C@H]2C[C@H]1C(=O)NC(C)(C)C [NELFINAVIR] | 0.009 | – | – | – |
| COc1ccc(S(=O)(=O)N(CC(C)C)C[C@@H](O)COc2ccc3sccc3c2)cc1OC | 0.06 | > 90 | inactive | inactive |
| COc1ccc(S(=O)(=O)N(CC(C)C)C[C@@H](O)COc2ccc3[nH]ccc3c2)cc1OC | 1 | – | – | – |
| COc1ccc(S(=O)(=O)N(CC(C)C)C[C@@H](O)COc2ccc3occc3c2)cc1OC | 130 | – | – | – |
